Legend:
[1] = literature statement; cited from earlier work
[2] = target: human MDR1 (P-glycoprotein; P-gp) (Homo sapiens (Human), UniProt P08183); experiment: bi-directional MDCK-MDR1 permeability assay; assay type: in vitro ADME; conditions: for MDCK-MDR1 Papp A→B (10^−6 cm/s) / Papp A→B: apical to basolateral direction; for MDCK-MDR1 ER / efflux ratio: efflux ratio B→A/A→B; for Papp A→B: dog; for Papp A→B / efflux ratio: MDCK-MDR1; for efflux ratio: human, read-out: MDCK-MDR1 ER
From the text: The bi-directional assay containing a Mandin Darby canine kidney (MDCK) cell line transfected with human MDR1 gene (P-glycoprotein; P-gp) designed to overexpress the MDR1 efflux transporter, a major efflux transporter at the blood brain barrier (BBB), uses an established method that measures the rate of flux of a compound across polarized cell monolayers. As well appreciated in the art, the data generated from the MDCK-MDR1 permeability assay may be used to predict in vivo absorption of drugs. The bi-directional MDCK-MDR1 permeability assay can identify and quantify levels of active efflux. Screening compounds in both the apical to basolateral direction (A→B) and basolateral to apical direction (B→A) across the cell monolayer provides a ratio of B→A/A→B (efflux ratio; “ER”). Unlike the Caco-2 assay, the MDCK-MDR1 assay is not subject to potential efflux interference by breast cancer resistance protein (BCRP). […] The data may further be used to predict blood brain barrier (BBB) permeability via calculation from the data of log(permeability-surface area product) (“log PS”), well-understood to be predictive of the in vivo log([brain concentration]/[plasma concentration]).

PARP1 enzyme = PARP1 enzyme (Homo sapiens (Human), UniProt P09874); experiment: PARP Mass Spectroscopy Assay (PARP1 enzymatic assay, nicotinamide detection); assay type: biochemical; conditions: 5 nM PARP1, 5 uM β-NAD, 60 min at RT, NAM by mass spectrometry
Chain of PARP1 enzyme (P09874 whole entry): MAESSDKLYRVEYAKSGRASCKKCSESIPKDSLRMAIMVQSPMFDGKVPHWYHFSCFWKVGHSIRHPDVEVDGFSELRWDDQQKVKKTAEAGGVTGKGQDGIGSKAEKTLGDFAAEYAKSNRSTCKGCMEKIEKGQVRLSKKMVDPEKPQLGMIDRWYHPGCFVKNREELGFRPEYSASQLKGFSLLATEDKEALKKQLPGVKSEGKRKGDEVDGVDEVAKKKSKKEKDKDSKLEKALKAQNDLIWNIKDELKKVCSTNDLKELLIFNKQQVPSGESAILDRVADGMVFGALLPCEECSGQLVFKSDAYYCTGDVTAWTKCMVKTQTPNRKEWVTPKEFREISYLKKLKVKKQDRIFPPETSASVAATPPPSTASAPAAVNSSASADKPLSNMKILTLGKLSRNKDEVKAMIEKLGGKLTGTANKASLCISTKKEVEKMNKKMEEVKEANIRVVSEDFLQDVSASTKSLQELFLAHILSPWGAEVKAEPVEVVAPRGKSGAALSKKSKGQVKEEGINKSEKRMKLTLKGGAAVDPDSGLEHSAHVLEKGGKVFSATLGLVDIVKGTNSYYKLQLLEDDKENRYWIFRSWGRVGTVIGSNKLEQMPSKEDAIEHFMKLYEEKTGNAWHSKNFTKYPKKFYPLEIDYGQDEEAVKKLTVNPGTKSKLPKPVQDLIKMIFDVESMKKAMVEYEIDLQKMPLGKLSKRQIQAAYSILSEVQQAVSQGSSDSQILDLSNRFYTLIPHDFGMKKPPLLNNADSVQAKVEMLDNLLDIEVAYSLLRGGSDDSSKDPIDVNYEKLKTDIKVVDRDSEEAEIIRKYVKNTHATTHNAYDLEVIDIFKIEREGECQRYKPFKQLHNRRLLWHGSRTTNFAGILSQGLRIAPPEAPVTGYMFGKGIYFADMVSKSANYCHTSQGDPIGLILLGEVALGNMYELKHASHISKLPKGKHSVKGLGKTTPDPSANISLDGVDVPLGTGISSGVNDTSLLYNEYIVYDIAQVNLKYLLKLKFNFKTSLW
From the text: Materials and Reagents: The PARP1 enzyme was purchased from BPS Bioscience (cat #80501). Tris-HCl, pH 8.0 was purchased from Corning (cat #46-031-CM). Magnesium chloride was purchased from Thermo Fisher Scientific (previously Honeywell Fluka, cat #63020-1L). All other assay components, activated DNA (cat #D4522), core histones (cat #SRP6590), β-Nicotinamide adenine dinucleotide (β-NAD—cat #N8285), 3ABA PARP1 small molecule inhibitor (from the PARP1 Enzyme Activity Assay kit, cat #17-10149), Sodium Chloride (NaCl, cat #56546-1L), Triton X-100 (cat #93443), Dithiothreitol (DTT, cat #43816-250 ML) were all purchased from Millipore Sigma.
Assay Buffer: The assay buffer includes the following reagents: 50 mM Tris-HCl pH 8.0, 50 mM NaCl, 10 mM, MgCl2, 0.01% Triton X-100, and 1 mM DTT.
PARP1 enzymatic assays were performed in 384-well plates in a total volume of 20 μL in the assay buffer. For concentration response curves, compounds were serially diluted 3-fold from 2 mM highest concentration […] to generate a 10-point curve, and 125 nL was transferred to the assay plate using the Echo acoustic dispenser for a final concentration range of 26.6 μM to […] in 10 μL reaction. Five microliters of 10 nM PARP1 enzyme and 100 nM core histones (2×) mix were added to the assay plates and pre-incubated for 30 mins at room temperature (RT). The reaction was initiated by the addition of a 5 μL of 10 uM β-NAD plus 0.02 mg/mL activated DNA (2×) mix. The reaction is incubated for 60 min at RT. The final concentration of the PARP1 enzyme and substrate concentrations were 5 nM and 5 uM, respectively. The positive control (high signal) and negative control (low signal) wells had 125 nL of DMSO in place of compounds. After the incubation is complete, the reaction is stopped by the addition of 10 μL of 10 uM of the 3ABA PARP1 inhibitor, incubated for 5 min at RT, and placed in the −80 C freezer for shipment to the Valo Health site in Branford Connecticut where mass spectrometry will be used to directly detect quantities of nicotinamide (NAM).
The percent inhibition of enzyme activity was calculated according to the following equation: […]
The values of Ssample, Shigh, and Slow in the equation refer to the NAM concentration detected in the assay wells, high control wells, and low control wells, respectively. To determine inhibitor IC50 values, % inhibition of the CRCs (concentration response curves) was fitted to the standard single-site four-parameter logistic equation.

[3] = in vivo unbound brain to plasma ratio (Kpuu) at steady state; conditions: rat, brain and plasma (unbound), continuous intravenous infusion over 24 hours, Sprague Dawley rats, free drug in brain vs plasma
Description: Compounds of the present technology are predicted to show BBB passage according to internal proprietary predictive models. These predictive models were further verified by in vivo experiments. In particular, in vivo unbound brain to plasma ratio (Kpuu) was measured at steady state by comparison of free drug concentrations (protein binding corrected) in brain and plasma after continuous intravenous infusion in Sprague Dawley rats over 24 hours, where a Kpuu of >0.3 represents good brain exposure of the compound.

Chain of human MDR1 (P-glycoprotein; P-gp) (P08183 whole entry): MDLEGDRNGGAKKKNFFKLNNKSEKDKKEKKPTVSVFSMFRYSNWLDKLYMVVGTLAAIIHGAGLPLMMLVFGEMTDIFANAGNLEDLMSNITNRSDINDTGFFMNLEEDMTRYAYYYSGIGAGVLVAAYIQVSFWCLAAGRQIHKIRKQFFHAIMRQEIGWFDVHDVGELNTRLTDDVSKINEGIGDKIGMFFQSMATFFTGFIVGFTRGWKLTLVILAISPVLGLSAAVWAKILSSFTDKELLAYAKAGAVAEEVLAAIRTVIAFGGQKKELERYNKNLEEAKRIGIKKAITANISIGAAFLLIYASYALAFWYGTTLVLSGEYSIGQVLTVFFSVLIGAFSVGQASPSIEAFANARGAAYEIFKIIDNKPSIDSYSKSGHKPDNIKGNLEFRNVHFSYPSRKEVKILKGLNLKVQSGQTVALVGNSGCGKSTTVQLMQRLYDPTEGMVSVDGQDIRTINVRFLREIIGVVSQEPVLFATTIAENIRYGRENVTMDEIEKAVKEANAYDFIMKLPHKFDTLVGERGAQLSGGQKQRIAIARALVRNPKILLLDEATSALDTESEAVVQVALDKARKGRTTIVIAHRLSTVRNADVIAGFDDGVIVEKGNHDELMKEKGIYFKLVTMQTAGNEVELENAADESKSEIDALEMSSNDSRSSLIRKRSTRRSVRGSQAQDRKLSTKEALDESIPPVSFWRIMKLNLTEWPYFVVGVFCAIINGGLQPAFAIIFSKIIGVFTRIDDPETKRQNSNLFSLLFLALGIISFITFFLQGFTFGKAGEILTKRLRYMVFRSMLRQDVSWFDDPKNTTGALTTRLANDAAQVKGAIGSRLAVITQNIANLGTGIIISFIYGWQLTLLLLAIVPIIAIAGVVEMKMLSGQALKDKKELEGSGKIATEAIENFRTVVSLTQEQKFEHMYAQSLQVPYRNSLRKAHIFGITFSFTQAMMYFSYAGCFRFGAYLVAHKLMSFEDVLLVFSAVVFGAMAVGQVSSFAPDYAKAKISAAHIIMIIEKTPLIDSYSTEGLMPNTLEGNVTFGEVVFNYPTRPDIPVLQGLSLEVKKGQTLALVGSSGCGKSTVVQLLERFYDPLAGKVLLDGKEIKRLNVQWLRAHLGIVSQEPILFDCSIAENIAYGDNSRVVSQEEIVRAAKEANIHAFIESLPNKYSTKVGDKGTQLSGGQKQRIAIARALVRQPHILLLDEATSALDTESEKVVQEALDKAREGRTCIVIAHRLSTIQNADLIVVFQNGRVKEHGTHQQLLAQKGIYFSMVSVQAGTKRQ

SMILES | MDCK-MDR1 Papp A→B (10^−6 cm/s) [2] | MDCK-MDR1 ER [2] | IC50 (PARP1 enzyme) [nM] | Papp A→B [2] [×10⁻⁶ cm/s] | efflux ratio [2] | Kp uu at 24 h [3] | central nervous system (CNS) penetration [1]
NC(=O)c1cccc2cn(-c3ccc([C@@H]4CCCNC4)cc3)nc12 [niraparib] |  |  |  |  |  |  | do not have good central nervous system (CNS) penetration
O=C(c1cc(Cc2n[nH]c(=O)c3ccccc23)ccc1F)N1CCN(C(=O)C2CC2)CC1 [olaparib] |  |  |  |  |  |  | do not have good central nervous system (CNS) penetration
Cn1ncnc1[C@H]1c2n[nH]c(=O)c3cc(F)cc(c23)N[C@@H]1c1ccc(F)cc1 [talazoparib] |  |  |  |  |  |  | do not have good central nervous system (CNS) penetration
N#Cc1ccc([C@H]2CNc3cc(F)cc4c(=O)[nH]nc2c34)c(F)c1 [Compound 0187B] | 8.56 10^−6 cm/s | 1.67 | 41 |  |  |  | 
CNCc1ccc(-c2[nH]c3cc(F)cc4c3c2CCNC4=O)cc1 [rucaparib] |  |  |  |  |  |  | do not have good central nervous system (CNS) penetration
O=c1[nH]nc2c3c(cc(F)cc13)NCC2c1ccc(Cl)cc1F (centres unmarked) [Compound 0189-6] | 10.6 10^−6 cm/s | 0.59 | 41 |  |  |  | 
C[C@@H]1Nc2cc(F)cc3c(=O)[nH]nc(c23)[C@H]1c1ccc(Cl)c(F)c1 [Compound 0195B, (8S,9S)-9-(4-chloro-3-fluorophenyl)-5-fluoro-8-methyl-2,7,8,9-tetrahydro-3H-pyrido[4,3,2-de]phthalazin-3-one] |  |  | 26 | 16.4 | 0.691 |  | 
C[C@@H]1Nc2cc(F)cc3c(=O)[nH]nc(c23)[C@H]1c1ccc(F)cc1F [Compound 0174B, (8S,9S)-9-(2,4-difluorophenyl)-5-fluoro-8-methyl-2,7,8,9-tetrahydro-3H-pyrido[4,3,2-de]phthalazin-3-one] |  |  | 8 | 13.8 | 0.654 | 0.591 | 
CC(C)[C@@H]1Nc2cc(F)cc3c(=O)[nH]nc(c23)[C@H]1c1c(F)cc(F)cc1F [Compound 0221B] | 8.48 10^−6 cm/s | 1.15 | 19 |  |  |  | 
CC(=O)N1CCC([C@@H]2Nc3cc(F)cc4c(=O)[nH]nc(c34)[C@H]2c2ccccc2Cl)CC1 [Compound 0223B] | 0.685 10^−6 cm/s | 37 | 9 |  |  |  | 
O=c1[nH]nc2c3c(cc(F)cc13)NCC2c1ccc(F)cc1F (centres unmarked) [Compound 0114-5, 9-(2,4-difluorophenyl)-5-fluoro-2,7,8,9-tetrahydro-3H-pyrido[4,3,2-de]phthalazin-3-one] |  |  | 32 | 16.1 | 0.995 |  | 
O=c1[nH]nc2c3c(cc(F)cc13)NCC2c1ccc(Cl)c(F)c1 (centres unmarked) [Compound 0188-5, 9-(4-chloro-3-fluorophenyl)-5-fluoro-2,7,8,9-tetrahydro-3H-pyrido[4,3,2-de]phthalazin-3-one] |  |  | 42 | 11.7 | 0.522 |  | 
C[C@H]1Nc2cc(F)cc3c(=O)[nH]nc(c23)[C@@H]1c1ccc(Cl)cc1F [Compound 0196A] | 13 10^−6 cm/s | 0.537 | 9 |  |  |  | 
C[C@H]1Nc2cc(F)cc3c(=O)[nH]nc(c23)[C@@H]1c1ccc(C#N)cc1F [Compound 0194A] | 6.96 10^−6 cm/s | 2.22 | 2 |  |  |  | 
O=c1[nH]nc2c3c(cc(F)cc13)N[C@H]([C@H]1CCOC1)[C@H]2c1ccc(F)cc1F [Compound 0115A] | 8.3 10^−6 cm/s | 1.73 | 10 |  |  |  | 
O=c1[nH]nc2c3c(cc(F)cc13)N[C@H]([C@@H]1CCOC1)[C@H]2c1ccc(F)cc1F [Compound 0115B] | 9.05 10^−6 cm/s | 2.04 | 190 |  |  |  | 

Second part, led by results:

MDCK-MDR1 Papp A→B (10^−6 cm/s) [2] | MDCK-MDR1 ER [2] | IC50 (PARP1 enzyme) [nM] | Papp A→B [2] [×10⁻⁶ cm/s] | efflux ratio [2] | Kp uu at 24 h [3] | SMILES | central nervous system (CNS) penetration [1]
2.91 10^−6 cm/s | 6.97 | 106 |  |  |  | O=c1[nH]nc2c3c(cc(F)cc13)N[C@@H](C1CCOCC1)[C@@H]2c1ccccc1Cl [Compound 0210A, (11S,12S)-12-(2-chlorophenyl)-7-fluoro-11-(oxan-4-yl)-2,3,10-triazatricyclo[7.3.1.0^{5,13}]trideca-1,5(13),6,8-tetraen-4-one] | 
 |  | 21 | 13.9 | 0.699 |  | C[C@H]1Nc2cc(F)cc3c(=O)[nH]nc(c23)[C@@H]1c1ccc(Cl)c(F)c1 [Compound 0195A, (8R,9R)-9-(4-chloro-3-fluorophenyl)-5-fluoro-8-methyl-2,7,8,9-tetrahydro-3H-pyrido[4,3,2-de]phthalazin-3-one] | 
9.25 10^−6 cm/s | 2.67 | 27 |  |  |  | O=c1[nH]nc2c3c(cc(F)cc13)NC[C@H]2c1ccccn1 [Compound 0211A] | 
9.65 10^−6 cm/s | 0.741 | 64 |  |  |  | O=c1[nH]nc2c3c(cc(F)cc13)N[C@@H](C1CC1)[C@@H]2c1ccccc1Cl [Compound 0207A, (11S,12S)-12-(2-chlorophenyl)-11-cyclopropyl-7-fluoro-2,3,10-triazatricyclo[7.3.1.0^{5,13}]trideca-1,5(13),6,8-tetraen-4-one] | 
 |  | 10 | 11 | 0.658 |  | C[C@H]1Nc2cc(F)cc3c(=O)[nH]nc(c23)[C@@H]1c1ccccc1Cl [Compound 0172A, (8R,9R)-9-(2-chlorophenyl)-5-fluoro-8-methyl-2,7,8,9-tetrahydro-3H-pyrido[4,3,2-de]phthalazin-3-one] | 
 |  | 87 | 12.9 | 0.655 |  | O=c1[nH]nc2c3c(cc(F)cc13)NC[C@H]2c1ccccc1Cl [Compound 0120A, (R)-9-(2-chlorophenyl)-5-fluoro-2,7,8,9-tetrahydro-3H-pyrido[4,3,2-de]phthalazin-3-one] | 
 |  | 45 | 0.498 | 30.4 |  | CN1CCC([C@H]2Nc3cc(F)cc4c(=O)[nH]nc(c34)[C@H]2c2ccc(F)cc2F)CC1 [Compound 0110B, (8R,9S)-9-(2,4-difluorophenyl)-5-fluoro-8-(1-methylpiperidin-4-yl)-2,7,8,9-tetrahydro-3H-pyrido[4,3,2-de]phthalazin-3-one] | 
5.66 10^−6 cm/s | 3.06 | 32 |  |  |  | O=c1[nH]nc2c3c(cc(F)cc13)N[C@H]([C@H]1CCOC1)[C@H]2c1ccccc1Cl [Compound 0121A] | 
14.4 10^−6 cm/s | 0.532 | 6 |  |  |  | O=c1[nH]nc2c3c(cc(F)cc13)N[C@H](C1CC1)[C@H]2c1ccccc1Cl [Compound 0207B, (11R,12R)-12-(2-chlorophenyl)-11-cyclopropyl-7-fluoro-2,3,10-triazatricyclo[7.3.1.0^{5,13}]trideca-1,5(13),6,8-tetraen-4-one] | 

Source: patent publication US20250346599A1, “TRICYCLIC PHTHALAZINONE PARP INHIBITORS AND METHODS OF USE” (Valo Health, Inc., priority 2022, published 2025)
